Experiment: xn = mol fraction of the nth substance listed
Settings: Fluid (supercritical or subcritical phases), Vibrating tube method

CC1=C(/C=C/C(C)=C/C=C/C(C)=C/C=C/C=C(C)/C=C/C=C(C)/C=C/C2=C(C)CCCC2(C)C)C(C)(C)CCC1 [β-carotene] + O=C=O
mass density [kg/m3]
Settings	x1 = 1.5e-06	x1 = 2.2e-06	x1 = 2.9e-06	x1 = 4.3e-06	x1 = 4.8e-06	x1 = 5.5e-06	x1 = 6.5e-06
308.15 K, 10000 kPa	717.5	717.7	717.9	717.6	717.8	718.3	717.8
308.15 K, 15000 kPa	816.3	816.4	816.5	816.4	816.4	816.7	816.4
308.15 K, 20000 kPa	866.3	866.3	866.3	866.4	866.4	866.5	866.4
308.15 K, 30000 kPa	929.1	929.1	929.1	929.1	929.3	929.2	929.1
308.15 K, 40000 kPa	971.8	971.9	971.9	971.9	972	972	971.9
313.15 K, 10000 kPa	636.7	637.3	637.2	637.2	637.7	637.8	637.3
313.15 K, 15000 kPa	781.5	781.6	781.6	781.6	781.8	781.9	781.6
313.15 K, 20000 kPa	840.4	840.4	840.4	840.4	840.6	840.7	840.4
313.15 K, 30000 kPa	909.9	909.9	909.9	909.9	910	910.1	909.9
313.15 K, 40000 kPa	955.7	955.7	955.7	955.7	955.8	955.9	955.7
323.15 K, 10000 kPa	398.3	397.9	398.9	398.2	398.4	398.5	398.2
323.15 K, 15000 kPa	702	701.8	702.1	702	702.1	702.2	702
323.15 K, 20000 kPa	785	784.9	785.1	785	785.2	785.3	785
323.15 K, 30000 kPa	870.5	870.5	870.5	870.5	870.6	870.7	870.5
323.15 K, 40000 kPa	922.9	923	923	923	923	923.1	923
333.15 K, 10000 kPa	296.5	297.2	296.7	296.6	296.9	297	296.6
333.15 K, 15000 kPa	607.3	607.7	607.7	607.4	607.7	607.8	607.4
333.15 K, 20000 kPa	724.5	724.7	724.7	724.7	724.7	725	724.6
333.15 K, 30000 kPa	829.7	829.7	829.7	829.7	829.8	829.9	829.7
333.15 K, 40000 kPa	889.8	889.8	889.9	889.9	890	890	889.9
